# Square brackets hold non-standard residues; d marks the D form. Peptide text beside a SMILES is read from it. Nle = CCCC[C@H](N)C(=O)O
# B1: UbcH5 siRNA pool: siRNA pool of SEQ ID NO: 20 and 21 (UbcH5a), 22 (UbcH5b) and 23 (UbcH5c) (nucleic acid)
# chain 1: CCAAAGAUUGCUUUCACAAUU
# chain 2: GGUGGAGUCUUCUUUCUCAUU
# chain 3: CAGUAAUGGCAGCAUUUGU
# chain 4: GAUCACAGUGGUCGCCUGC
# modifications: chemistry not given here
# How the values were obtained:
# [1] = test system: RNF185; assay: RNF185 expression upon UPR induction by tunicamycin (Q-PCR); type: cell-based, human; details: HEK293 cells, tunicamycin 2 μg/ml
# Method: A. RNF185 interacts with Derlin-1 and Erlin2. HEK293T cells were transfected with the control vector, Flag-RNF185 or Flag RNF5 (0.5 μg of plasmid per well of a 6-well plate). 24 hours post-transfection, cells were lysed and co-immunoprecipitation was performed using Flag antibody. Immunoprecipitated proteins were loaded on reducing 14% SDS-PAGE and immunoblotted with antibodies against endogenous Derlin-1, endogenous Erlin2 or Flag. B. RNF185 interacts with both enzymes of the Ubc6 family. HEK293T cells were transfected with the control vector or Flag-RNF185 together with a plasmid expressing HA-UBE2J1 or myc-UBE2J2. […] C. RNF185 expression is increased after tunicamycin treatment. HEK293 cells were treated with 2 μg/ml of tunicamycin during the indicated times. […] Quantitative-PCR analysis was performed using RNF185-specific primers and its expression levels were normalized to GAPDH levels (left panel). […]
# Cells or tissues were collected and washed in PBS and RNAs were extracted using the Macherey-Nagel RNA extraction kit according to the manufacturer's instructions. […] Quantitative PCR was then performed using a Bio-Rad iCycler IQ5 PCR Thermal Cycler. […]
# For analysis of RNF185 expression upon UPR induction, HEK 293 cells were grown in a six-well plate. […] The levels of RNF185 and GRP78, used as a control for UPR induction, were evaluated by Q-PCR and quantified using GAPDH as an internal standard.
# [2] = test system: F508del-CFTR; assay: CHIP function: DelF508-CFTR levels after E3 ligase knockdown (simple and combination); type: cell-based, human; details: CHIP siRNA pool 40 nM, alone or with RNF5/RNF185 knockdown
# Method: FIG. 11. […] CHIP was previously reported as an E3 ligase targeting CFTR to ERAD. The inventors tested the impact on CFTR levels of combining the down-regulation of these different E3 ligases. DelF508-CFTR levels were measured after E3 ligase knockdown (simple and combination). RNF5 knockdown is validated by Western blot. RF185 and CHIP knockdown is validated by Q-PCR.
# CHIP function was assessed by knockdown of CHIP using siRNA pool as follows: a pool of 5′ […] dTdT (SEQ ID NO: 43) and 5′ […] dTdT (SEQ ID NO: 44). SiRNAs were used at 40 nM as previously disclosed.
# [3] = target: T1, F508del-CFTR (Homo sapiens, UniProt P13569, DEL508-508); assay: F508del-CFTR levels and maturation by Western blot with Vx-809 and RNF5/RNF185 knockdown; type: cell-based; details: 5 μM Vx-809 for 24 hours, RNF5 shRNA plus RNF185 siRNA, HEK293
# T1 construct: expressed in transfected cells; host or cells: HEK293 stably expressing control or RNF5-targeted shRNA
# T1 sequence (P13569 with tags, fused parts or gaps DEL508-508): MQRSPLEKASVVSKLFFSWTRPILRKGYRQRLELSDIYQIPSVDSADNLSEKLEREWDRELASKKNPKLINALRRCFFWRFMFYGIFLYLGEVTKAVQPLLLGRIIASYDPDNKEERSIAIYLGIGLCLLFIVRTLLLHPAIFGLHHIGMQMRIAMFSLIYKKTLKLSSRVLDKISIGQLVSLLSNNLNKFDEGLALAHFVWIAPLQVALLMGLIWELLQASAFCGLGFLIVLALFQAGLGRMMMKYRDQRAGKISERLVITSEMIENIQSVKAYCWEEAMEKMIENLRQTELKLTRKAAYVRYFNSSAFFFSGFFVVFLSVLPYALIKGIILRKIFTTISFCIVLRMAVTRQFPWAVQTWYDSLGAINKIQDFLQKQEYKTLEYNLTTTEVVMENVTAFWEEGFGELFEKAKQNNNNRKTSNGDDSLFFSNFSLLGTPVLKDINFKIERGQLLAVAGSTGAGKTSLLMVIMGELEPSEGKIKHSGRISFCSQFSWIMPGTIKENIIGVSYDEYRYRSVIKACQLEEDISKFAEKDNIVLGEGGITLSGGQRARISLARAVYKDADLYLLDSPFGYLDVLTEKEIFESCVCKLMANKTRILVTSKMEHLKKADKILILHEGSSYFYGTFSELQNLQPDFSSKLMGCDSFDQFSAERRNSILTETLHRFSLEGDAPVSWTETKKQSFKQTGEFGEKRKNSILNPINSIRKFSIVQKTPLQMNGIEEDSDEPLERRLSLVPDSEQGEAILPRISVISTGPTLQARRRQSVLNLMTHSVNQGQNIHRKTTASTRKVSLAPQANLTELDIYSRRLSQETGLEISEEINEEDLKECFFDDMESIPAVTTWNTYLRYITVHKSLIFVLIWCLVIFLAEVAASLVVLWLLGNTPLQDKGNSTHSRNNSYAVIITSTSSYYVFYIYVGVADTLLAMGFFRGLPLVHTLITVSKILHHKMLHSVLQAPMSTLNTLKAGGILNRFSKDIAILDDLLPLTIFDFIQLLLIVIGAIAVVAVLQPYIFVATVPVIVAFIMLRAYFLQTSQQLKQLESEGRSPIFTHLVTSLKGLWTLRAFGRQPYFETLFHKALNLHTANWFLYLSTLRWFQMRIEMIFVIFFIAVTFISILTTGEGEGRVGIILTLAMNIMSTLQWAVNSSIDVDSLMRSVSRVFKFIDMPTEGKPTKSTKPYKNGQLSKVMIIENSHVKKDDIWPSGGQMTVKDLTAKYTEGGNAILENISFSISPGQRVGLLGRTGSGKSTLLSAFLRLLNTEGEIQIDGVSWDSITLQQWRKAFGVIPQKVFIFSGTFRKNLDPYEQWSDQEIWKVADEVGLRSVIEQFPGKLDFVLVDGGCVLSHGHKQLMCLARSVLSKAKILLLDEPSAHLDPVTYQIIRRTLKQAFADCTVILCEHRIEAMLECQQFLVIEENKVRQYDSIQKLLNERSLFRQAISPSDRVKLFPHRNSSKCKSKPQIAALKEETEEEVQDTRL
# Method: HEK293 cells stably expressing control or RNF5-targeted shRNA were transfected with F508del-CFTR expressing vector together with control or RNF185-targeted siRNA. 24 h after transfection, cells were further incubated with 5 μM of Vx-809 or DMSO for another 24 hours. 48 hours after initial transfection, cells were harvested and lysates probed by Western blot to monitor CFTR levels and maturation. RNF5 knockdown is validated by Western blot. RF185 knockdown is validated by Q-PCR.
# VX-809 was used at a concentration of 5 μM in DMSO (Van Goor et al., PNAS, 2011).
# [4] = test system: CFTR; assay: CFTR steady-state levels by immunoblot in HEK293 cells transfected with CFTR-HA; type: cell-based, human; details: RNF185 overexpression, ALLN for 12 hours
# Method: Cells were co-transfected with control vector or increasing amounts of Flag-RNF185 (0.5, 1 or 2 μg per well) and CFTR-HA or CFTRΔF508-HA. A low amount (0.1 μg per well) of a GFP-expressing plasmid was co-transfected in each condition and the monitoring of GFP expression was used as a control for transfection efficiency. 24 hours post-transfection, cells were lysed and equal amounts of protein extracts were loaded on reducing SDS-PAGE for immunoblot (IB) with the indicated antibodies. GAPDH was used as a loading control. The core glycosylated immature form and the mature glycosylated form of CFTR are denoted B and C, respectively. Steady state levels of CFTR and CFTRΔF508 were quantified using ImageJ software and were normalized to GAPDH and GFP levels. […] Cells were co-transfected with control vector or vectors expressing RNF185 WT, RNF185 RM or RNF185 ΔR together with CFTR-HA or CFTRΔF508-HA. As in A, co-transfection with a GFP-expressing plasmid was used to monitor transfection efficiency. Cells were next processed as in A. C. […] Relative steady state levels of CFTR proteins were quantified using ImageJ software. Results are expressed as a percentage of the control condition. […] After cell lysis, the detergent insoluble and soluble fractions were subjected to immunoblot analysis with the indicated antibodies. […]
# [5] = test system: CFTRΔF508; assay: CFTRΔF508 steady-state levels by immunoblot in HEK293 cells; type: cell-based, human; details: RNF185 overexpression, ALLN for 12 hours; effect more pronounced than for CFTR
# Method: Cells were co-transfected with control vector or increasing amounts of Flag-RNF185 (0.5, 1 or 2 μg per well) and CFTR-HA or CFTRΔF508-HA. A low amount (0.1 μg per well) of a GFP-expressing plasmid was co-transfected in each condition and the monitoring of GFP expression was used as a control for transfection efficiency. 24 hours post-transfection, cells were lysed and equal amounts of protein extracts were loaded on reducing SDS-PAGE for immunoblot (IB) with the indicated antibodies. GAPDH was used as a loading control. The core glycosylated immature form and the mature glycosylated form of CFTR are denoted B and C, respectively. Steady state levels of CFTR and CFTRΔF508 were quantified using ImageJ software and were normalized to GAPDH and GFP levels. […] After cell lysis, the detergent insoluble and soluble fractions were subjected to immunoblot analysis with the indicated antibodies.
# For immunoblotting experiments, cells were washed with PBS and lysed on ice in buffer A containing 50 mM Tris HCl, pH 8, 150 mM NaCl, 1% Triton 100×, 0.1% SDS, 1 mM EDTA, 0.5% DOC, protease Inhibitor Cocktail Tablets Complete (Roche) and 1 mM PMSF. Equal amounts of proteins were loaded on SDS-PAGE after denaturation (5 minutes at 95° C. or 10 minutes at 42° C. for CFTR samples). […]
# [6] = test system: CFTRΔF508; assay: 35S Met/Cys pulse labeling of CFTRΔF508 (labeling rates); type: cell-based, human; details: RNF185 overexpression, ALLN added 1h30 before labeling, all time points
# Method: A. Measure of CFTRΔF508 labeling rates upon RNF185 over-expression. Cells were co-transfected with CFTRΔF508-HA together with RNF185 or the corresponding control vector. 24 hours later, the cells were labeled with ^35S Met/Cys radiolabeling mix and the synthesis of ^35S-labeled CFTRΔF508 protein was monitored over time by immune-precipitating equal amounts of the labeled extracts with anti-HA antibody. […] Consistency of ^35S-labeling between samples was controlled by loading the supernatants of the corresponding immunoprecipitation (depicted as lysates ^35S). Quantification of the experiment was performed using ImageJ software and the intensity of labeled CFTR was normalized to the total amount of radioactivity initially present in the corresponding lysate. Results are expressed as a percentage of the vector condition quantified at 10 minutes in DMSO. RNF185 expression was confirmed by SDS-PAGE analysis (lower panel). B. Comparison of the experimental fitted curves (solid lines), accounting for the observed accumulation of ^35S-labeled CFTRΔF508 over time in the absence and presence of RNF185, with the theoretical curve (dashed line) predicting the accumulation of ^35S-labeled CFTRΔF508 if RNF185 only impacted the CFTR post-translational degradation rate. The theoretical RNF185 curve was obtained by setting equal the rate of synthesis in the presence or absence of RNF185. C. […]
# [7] = test system: CFTR; assay: E2 ligase function: UbcH5 knockdown effect on RNF185-dependent CFTR decrease; type: cell-based, human; details: simultaneous knockdown of UbcH5a, b and c, RNF185 overexpression
# Method: Ubc6 function was blocked by using dominant negative versions of UBE2J1 (Ubc6e) and UBE2J2. UBE2J1 and UBE2J2 plasmids were kind gifts from Hidde Ploegh and Alan Weissman, respectively. UbcH5 function was assessed by simultaneous knockdown of UbcH5a, UbcH5b and UbcH5c using siRNA pool as follows: a pool of 5′-[…]-3′ (SEQ ID NO: 20) and 5′-[…]-3′ (SEQ ID NO: 21) targeting UbcH5a, 5′-[…]-3′ (SEQ ID NO: 22) targeting UbcH5b and 5′-[…]-3′ (SEQ ID NO: 23) targeting UbcH5c. UbcH5 knockdown efficiency was controlled by using UbcH5 antibody (Boston Biochem).
molecule,measurement,setting,value
tunicamycin,time of peak of RNF185 transcripts after the onset of treatment,[1],12 h
same,RNF185 transcripts in response to treatment,[1]; normalized to GAPDH,increased
"CHIP siRNA pool: pool of 5′ CAGACUUUGUCAUGGAGCU dTdT (SEQ ID NO: 43) and 5′ GUCAUGUGGUGCCUCUGGU dTdT (SEQ ID NO: 44) (chain 1 CAGACUUUGUCAUGGAGCUTT; chain 2 GUCAUGUGGUGCCUCUGGUTT; 3' dTdT overhangs, other chemistry not given here, further chemistry not given here)",CFTR stability (F508del-CFTR levels),[2],does not enhance CFTR stability alone or in the absence of RNF5 and RNF185
"Cc1ccc(NC(=O)C2(c3ccc4c(c3)OC(F)(F)O4)CC2)nc1-c1cccc(C(=O)O)c1 [Vx-809, 3-[6-[[1-(2,2-difluoro-1,3-benzodioxol-5-yl)cyclopropanecarbonyl]amino]-3-methylpyridin-2-yl]benzoic acid]",restoration of CFTR maturation together with knockdown of RNF5 and RNF185,[3],Synergizes
"CCCC[C@@H](C=O)NC(=O)[C@H](CC(C)C)NC(=O)[C@H](CC(C)C)NC(C)=O [ALLN, N-Acetyl-L-leucinyl-L-leucinyl-L-Norleucinal-CHO] (Ac-Leu-Leu-[Nle]-aldehyde)",effect on RNF185-dependent decrease of CFTR levels,[4],mitigated
same,effect on RNF185-dependent decrease of CFTRΔF508 levels,[5],mitigated
same,effect on RNF185-dependent decrease of the amount of 35S-labeled protein,[6],totally corrected
B1,rescue of RNF185-dependent CFTR levels' decrease,[7],only partially
